Measurements as given in patent publication US20220202792A1, “METHODS AND COMPOSITIONS FOR TREATING CHRONIC INFLAMMATORY INJURY, METAPLASIA, DYSPLASIA AND CANCERS OF EPITHELIAL TISSUES” (University of Houston System, priority 2019, published 2022).
“Also recorded” adds a separate entry of the source.

Experiments:
[1] = tested on: Barrett's stem cells (BE stem cells, Krt7+); experiment: High throughput chemical screening and dose response on GFP-labeled stem cells; type: cell-based, human; conditions: for lethality towards Barrett's stem cells: screened in the background of 1 μM Ponatinib
human GSK3α = human GSK3α (Homo sapiens, UniProt P49840); conditions: cited from earlier work
Chain of human GSK3α (P49840 whole entry): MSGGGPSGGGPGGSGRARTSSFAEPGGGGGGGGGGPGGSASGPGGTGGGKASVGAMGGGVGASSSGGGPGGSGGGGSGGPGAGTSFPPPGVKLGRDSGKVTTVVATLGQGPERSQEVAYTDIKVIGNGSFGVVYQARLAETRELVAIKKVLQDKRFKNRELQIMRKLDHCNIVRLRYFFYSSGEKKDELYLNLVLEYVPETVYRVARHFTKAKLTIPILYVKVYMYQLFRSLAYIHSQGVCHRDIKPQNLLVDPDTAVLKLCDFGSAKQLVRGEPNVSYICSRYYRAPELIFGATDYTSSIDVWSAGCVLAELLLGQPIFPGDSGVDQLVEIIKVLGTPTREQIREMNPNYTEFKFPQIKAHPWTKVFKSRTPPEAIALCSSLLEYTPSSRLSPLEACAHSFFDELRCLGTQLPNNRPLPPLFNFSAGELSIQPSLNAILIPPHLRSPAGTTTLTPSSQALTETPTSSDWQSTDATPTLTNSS

[2] = tested on: esophageal squamous stem cells (ESO stem cells, Krt5+); experiment: High throughput chemical screening and dose response on GFP-labeled stem cells; type: cell-based, human; conditions: for effect on Esophageal stem cells: in the presence of 1 μM Ponatinib
[3] = tested on: Barrett's, dysplasia or EAC stem cells; experiment: Co-culture of esophageal stem cells with Barrett's, dysplasia or EAC stem cells; type: cell-based, human; conditions: together with 1 μM Ponatinib
Experimental: FIG. 6. Patient-matched BE, dysplasia and cancer stem cells (Krt7+, Green) were mixed with Krt5+ (red) ESO cells and co-cultured for five days and then treated with seven selected drugs together with 1 μM Ponatinib.
BE has been known to be the precursor of the dysplastic and cancerous lesions of EAC. […] Moreover, PCA analysis of Barrett's stem cells derived from 12 patients together with dysplasia, cancer and Esophageal squamous stem cells confirmed that the stem cells of dysplasia and cancer shared very similar gene expression with Barrett's stem cells (FIGS. 4A & B). […] The effects of the eight drug hits in combination with Ponatinib were tested in the cell culture of co-seeding esophageal stem cells and Barrett's, dysplasia or EAC stem cells. […] Given these three entities always co-exist in patients with EAC, our strategies of eradicating all of them could help to eliminate the chance of recurrence of EAC patients drastically.

[4] = tested on: chymotrypsin-like activity of the proteasome; conditions: cellular; cited from earlier work
[5] = tested on: dysplasia and cancer stem cells; experiment: Mice xenografted with dysplasia and cancer stem cells; type: in vivo; conditions: with Ponatinib
Text: FIG. 5C. Schematic of in vivo validation of drug combinations in mice xenografted with dysplasia and cancer stem cells. Following the treatment, the xenografts were processed for histological analysis or clonogenic assays to detect the existence of stem cells.

[6] = tested on: Barrett's stem cells (GFP) and esophageal squamous stem cells (RFP); experiment: 3D air-liquid interface (ALI) co-culture of Barrett's and esophageal stem cells; type: cell-based, human; conditions: in the presence of Ponatinib
Experimental: A 3D culture model was generated to mimic Barrett's Esophagus in vitro. The esophageal squamous stem cells and Barrett's stem cells were co-cultured in the transwell insert. Following the creation of air-liquid interface, it was observed that the BE islands located among well-differentiated squamous epithelium that well recapitulated the histology of human BE in the patient. Given the similarity of this artificial model and human pathology, the hits were tested in this system to further validate them. […] The esophageal squamous stem cells were labeled with red fluorescent protein (RFP) while Barrett's stem cells were labeled with green fluorescent protein (GFP). Without the treatment, it was observed that a mixture of GFP and RFP labeled cells in culture.

[7] = tested on: Barrett's stem cells and Esophageal stem cells; experiment: Co-culture of Barrett's stem cell lines and Esophageal stem cells; type: cell-based, human; conditions: in the presence of Ponatinib
[8] = tested on: Barrett's stem cells and esophageal squamous stem cells xenograft; experiment: Mouse xenograft of co-injected esophageal squamous and GFP labeled Barrett's stem cells; type: in vivo, mice
Text: The effect of these chemicals on BE in a xenograft model was further examined. The esophageal squamous stem cells and GFP labeled Barrett's stem cells were mixed and co-injected into the immunodeficient mice. […] Two weeks following the treatment, the xenografts were collected and examined through histology analysis and clonogenic analysis.

[9] = tested on: tryptic and peptidylglutamyl activities of the proteosome; conditions: cited from earlier work
[10] = tested on: chymotrypsin-like activity of proteasome; conditions: cited from earlier work
[11] = tested on: BE, dysplasia and cancer stem cells; experiment: 3D (ALI) culture of patient-matched BE, dysplasia and cancer stem cells; type: cell-based, human; conditions: combined with Ponatinib
Text: FIG. 5B. Left, Scanned images of top view of BE, dysplasia and cancer stem cells (green) generated ALI structures in the presence of absence of drug combinations.

3T3-J2 feeder cells = experiment: Lethality of feeder cells during treatment; type: cell-based; conditions: combination with Ponatinib
Experimental: It was next hypothesized that one chemical in our libraries could function with Ponatinib in a synergistic manner to specifically eradicate Barrett's stem cells while protecting and promoting esophageal stem cells. The same libraries were screened in the background of 1 μM Ponatinib. […] Among them, Adefovir Dipivoxil is a FDA approved drug, CEP-18770 and Qizartinib are in clinical trials. […] Their differential effects on Barrett's stem cells and Esophageal stem cells were validated in a dosage dependent manner (FIG. 2C; FIG. 3F).
The GFP-tagged cell lines will be seeded on multiple 384 well plates (Griener Bio-One, USA) (varying according to number of compounds in a library) with a feeder layer of irradiated 3T3-J2 fibroblast cells. The stem cell will be allowed to grow until they divide to become 4-5 cells within a colony. Afterwards they will be transported for treatment with selected chemical library (1 μM) to High Throughput Research and Screening Center at Institute of Biosciences and Technology (Houston, Tex.), Texas A&M University. Positive and negative control lanes will be allocated within each plate. […] The cells will be allowed to grow for 6 days at 37° C., 7.5% CO2 incubator after treatment. After the cells in the control lanes are at good confluency, the cells will be prepared for imaging. […]

STAT1 = molecular target: T1, STAT1 (Homo sapiens, UniProt P42224); conditions: cited from earlier work
T1 sequence (P42224 1-750): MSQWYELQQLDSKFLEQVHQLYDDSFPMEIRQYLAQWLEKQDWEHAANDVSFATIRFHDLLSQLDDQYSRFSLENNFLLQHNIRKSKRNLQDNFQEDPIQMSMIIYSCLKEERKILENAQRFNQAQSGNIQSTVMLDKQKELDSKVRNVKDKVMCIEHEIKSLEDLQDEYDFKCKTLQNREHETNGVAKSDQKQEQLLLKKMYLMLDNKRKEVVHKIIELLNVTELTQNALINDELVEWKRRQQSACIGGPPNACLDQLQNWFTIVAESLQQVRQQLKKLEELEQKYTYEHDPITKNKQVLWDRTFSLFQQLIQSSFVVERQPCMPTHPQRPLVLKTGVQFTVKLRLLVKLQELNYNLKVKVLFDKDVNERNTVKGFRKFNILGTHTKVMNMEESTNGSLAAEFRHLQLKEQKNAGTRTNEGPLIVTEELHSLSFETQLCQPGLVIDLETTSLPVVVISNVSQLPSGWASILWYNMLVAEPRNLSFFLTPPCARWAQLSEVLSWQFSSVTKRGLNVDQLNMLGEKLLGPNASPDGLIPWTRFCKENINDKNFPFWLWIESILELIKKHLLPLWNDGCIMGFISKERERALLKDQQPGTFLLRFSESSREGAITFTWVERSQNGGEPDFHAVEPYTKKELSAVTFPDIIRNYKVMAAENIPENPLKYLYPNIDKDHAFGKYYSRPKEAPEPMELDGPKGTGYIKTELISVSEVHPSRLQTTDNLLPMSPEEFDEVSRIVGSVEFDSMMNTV

[12] = molecular target: ERBB2 phosphorylation (T798I) (Homo sapiens, UniProt P04626, T798I); conditions: cited from earlier work
Chain of ERBB2 phosphorylation (T798I) (P04626 23-1255 T798I): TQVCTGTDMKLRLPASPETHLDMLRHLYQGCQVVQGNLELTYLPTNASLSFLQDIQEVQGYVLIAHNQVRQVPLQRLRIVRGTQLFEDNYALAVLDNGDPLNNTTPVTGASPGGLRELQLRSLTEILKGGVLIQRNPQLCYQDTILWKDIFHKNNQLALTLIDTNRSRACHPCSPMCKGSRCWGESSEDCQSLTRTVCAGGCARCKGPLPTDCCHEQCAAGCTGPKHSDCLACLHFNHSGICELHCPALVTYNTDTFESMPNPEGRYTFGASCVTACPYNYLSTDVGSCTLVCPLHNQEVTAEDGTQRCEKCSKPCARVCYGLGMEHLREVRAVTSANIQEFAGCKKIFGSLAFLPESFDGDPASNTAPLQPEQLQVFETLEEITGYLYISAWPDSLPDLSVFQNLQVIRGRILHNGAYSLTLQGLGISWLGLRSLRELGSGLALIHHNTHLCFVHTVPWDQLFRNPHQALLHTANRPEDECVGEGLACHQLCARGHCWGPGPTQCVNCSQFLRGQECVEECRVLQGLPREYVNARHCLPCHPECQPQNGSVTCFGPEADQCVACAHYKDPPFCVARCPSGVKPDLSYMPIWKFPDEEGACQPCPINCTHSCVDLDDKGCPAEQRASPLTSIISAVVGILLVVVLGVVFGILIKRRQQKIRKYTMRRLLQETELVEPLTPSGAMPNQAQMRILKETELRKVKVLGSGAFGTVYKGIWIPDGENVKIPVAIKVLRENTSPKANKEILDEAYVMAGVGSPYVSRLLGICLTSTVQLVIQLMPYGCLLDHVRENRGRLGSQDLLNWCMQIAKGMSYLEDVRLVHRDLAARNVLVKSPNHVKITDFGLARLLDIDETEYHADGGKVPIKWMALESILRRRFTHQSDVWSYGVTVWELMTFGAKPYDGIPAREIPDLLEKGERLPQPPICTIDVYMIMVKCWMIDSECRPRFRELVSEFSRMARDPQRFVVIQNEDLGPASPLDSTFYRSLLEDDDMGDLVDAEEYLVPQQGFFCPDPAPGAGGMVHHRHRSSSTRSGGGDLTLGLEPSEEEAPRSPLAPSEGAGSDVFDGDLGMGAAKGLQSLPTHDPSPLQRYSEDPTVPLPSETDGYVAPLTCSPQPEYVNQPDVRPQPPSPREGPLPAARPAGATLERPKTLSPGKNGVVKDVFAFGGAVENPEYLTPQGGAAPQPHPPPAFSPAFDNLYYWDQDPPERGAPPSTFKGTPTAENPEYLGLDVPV

[13] = tested on: taxol-resistant ovarian stem cells; experiment: Killing of taxol-resistant ovarian stem cells in vitro; type: cell-based; conditions: combination with ponatinib
[14] = tested on: taxol-resistant ovarian stem cells; experiment: Taxol-resistant ovarian stem cell xenograft animal models; type: in vivo; conditions: combination with ponatinib

N#Cc1ccc2[nH]c(O)c(-c3ccc(CN4CCOCC4)cn3)c2c1 [AZD1080]
lethality towards Barrett's stem cells [1]: displayed the lethality
differential effects on BE and ESO stem cells, validation over a range of dosages ([1]; together with 1 μM Ponatinib): appeared to be the false positive hit in the screening
Ki (human GSK3α): 6.9 nM
effect on Esophageal stem cells [2]: without affecting

CC(C)(C)C(=O)OCOP(=O)(COCCn1cnc2c(N)ncnc21)OCOC(=O)C(C)(C)C [Adefovir Dipivoxil]
lethality towards Barrett's stem cells [1]: displayed the lethality
effect on Esophageal stem cells [2]: without affecting

CC(C)C[C@H](NC(=O)[C@@H](NC(=O)c1cccc(-c2ccccc2)n1)[C@@H](C)O)B(O)O [CEP-18770, [(1R)-1-[[(2S,3R)-3-hydroxy-2-[(6-phenylpyridine-2-carbonyl)amino]butanoyl]amino]-3-methylbutyl]boronic acid]
growth of BE, dysplasia and cancer stem cells in co-culture with ESO cells [3]: most effective
IC50 [4]: 3.8 nM
Dysplastic structures (Krt7+/Ki67+) in xenografts [5]: diminished
eradication of precancerous, dysplastic and cancerous stem cells in mouse xenograft models [5]: eradicate
stem cells cloned from treated dysplastic structures (rhodamine staining) [5]: not cloned
differential of dose-response curves, BE stem cells versus normal esophageal stem cells ([1]; in the background of a fixed concentration of Ponatinib): ~1,000 fold
lethality towards Barrett's stem cells [1]: displayed the lethality
cross sections of the ALI structures [6]: intact esophageal squamous epithelium without any existence of Barrett's epithelium
GFP labeled Barrett's stem cells in 3D ALI co-culture ([6]; eight Barrett's stem cell lines): disappearance
effect on Esophageal squamous stem cells in co-culture [7]: promoting
lethality to Barrett's stem cells in co-culture ([7]; nine Barrett's stem cell lines): uniform lethality to all Barrett's stem cells
BE stem cells in treated structures (histological analysis) ([8]; NSG mice, with Ponatinib): not detected
Krt5+ ESO structures in treated samples ([8]; NSG mice, with Ponatinib): visibly more robust
clonogenic Barrett's stem cells from xenografts ([8]; combination with Ponatinib, clonogenic analysis): lack of clonogenic Barrett's stem cells
Barrett's structures in xenografts (histology) ([8]; combination with Ponatinib, intraperitoneally, two weeks following the treatment): total loss
inhibition of the tryptic and peptidylglutamyl activities of the proteosome [9]: only marginal inhibition
IC50 [10]: 3.8 nM
effect on Esophageal stem cells [2]: without affecting
eradication of BE, dysplasia and cancer stem cells in 3D (ALI) culture [11]: eradicate

CO[C@H]1CC[C@@H](O[C@H]2C[C@H]([C@]3(C)CC[C@]4(C[C@H](O)[C@@H](C)[C@@H]([C@@H](C)/C=C(\C)C(=O)[C@H](C)C[C@H](C)C(=O)O)O4)O3)O[C@]3(O[C@@H]([C@H]4O[C@@](O)(CO)[C@H](C)C[C@@H]4C)C[C@@H]3C)[C@@H]2C)O[C@H]1C [Nanchangmycin]
lethality towards Barrett's stem cells [1]: displayed the lethality
lethality of 3T3-J2 feeder cells during the treatment (3T3-J2 feeder cells): high lethality
effect on Esophageal stem cells [2]: without affecting

Cc1ccc(C(=O)Nc2ccc(CN3CCN(C)CC3)c(C(F)(F)F)c2)cc1C#Cc1cnc2cccnn12 [Ponatinib]
survival of Barrett's stem cells ([1]; single agent screening): slightly decreasing the survival
proliferation of esophageal stem cells ([2]; single agent screening): promoted the proliferation; also recorded: significantly increase the proliferation

CC(C)(C)c1cc(NC(=O)Nc2ccc(-c3cn4c(n3)sc3cc(OCCN5CCOCC5)ccc34)cc2)no1 [Quizartinib]
lethality towards Barrett's stem cells [1]: displayed the lethality
effect on Esophageal stem cells [2]: without affecting

O=[N+]([O-])c1ccc2c(c1)S(=O)(=O)C=C2 [Stattic]
selectivity over STAT1 (STAT1): highly selectivity
lethality towards Barrett's stem cells [1]: displayed the lethality
effect on Esophageal stem cells [2]: without affecting

C=CC(=O)Nc1cccc(Sc2nc(Nc3ccc(N4CCN(C)CC4)cc3)ncc2Cl)c1 [WZ8040]
lethality towards Barrett's stem cells [1]: displayed the lethality
inhibition of ERBB2 phosphorylation (T798I) [12]: does not inhibit
effect on Esophageal stem cells [2]: without affecting

CC(=O)O[C@H]1C(=O)[C@@]2(C)[C@H]([C@H](OC(=O)c3ccccc3)[C@]3(O)C[C@H](OC(=O)[C@H](O)[C@@H](NC(=O)c4ccccc4)c4ccccc4)C(C)=C1C3(C)C)[C@]1(OC(C)=O)CO[C@@H]1C[C@@H]2O [taxol]
killing taxol-resistant ovarian stem cells [13]: synergy
tumor volume [14]: reducing tumor volume
